In patent publication US20260049071A1, “PROTEIN TYROSINE KINASE INHIBITOR AND MEDICAL USE THEREOF” (BEYANG THERAPEUTICS CO., LTD., priority 2022, published 2026):
In brackets after ≈: the same amount, converted by molar mass.

Columns and labels:
[1] = target: VEGFR2 autophosphorylation (pVEGFR2) in HUVEC cells (Homo sapiens (Human), UniProt P35968); assay: Inhibition of VEGF-induced VEGFR2 autophosphorylation in HUVEC cells (ELISA); assay type: cell-based; conditions: 50 ng/ml human VEGF, compound 1 h
Chain of VEGFR2 autophosphorylation (pVEGFR2) in HUVEC cells (P35968 20-1356): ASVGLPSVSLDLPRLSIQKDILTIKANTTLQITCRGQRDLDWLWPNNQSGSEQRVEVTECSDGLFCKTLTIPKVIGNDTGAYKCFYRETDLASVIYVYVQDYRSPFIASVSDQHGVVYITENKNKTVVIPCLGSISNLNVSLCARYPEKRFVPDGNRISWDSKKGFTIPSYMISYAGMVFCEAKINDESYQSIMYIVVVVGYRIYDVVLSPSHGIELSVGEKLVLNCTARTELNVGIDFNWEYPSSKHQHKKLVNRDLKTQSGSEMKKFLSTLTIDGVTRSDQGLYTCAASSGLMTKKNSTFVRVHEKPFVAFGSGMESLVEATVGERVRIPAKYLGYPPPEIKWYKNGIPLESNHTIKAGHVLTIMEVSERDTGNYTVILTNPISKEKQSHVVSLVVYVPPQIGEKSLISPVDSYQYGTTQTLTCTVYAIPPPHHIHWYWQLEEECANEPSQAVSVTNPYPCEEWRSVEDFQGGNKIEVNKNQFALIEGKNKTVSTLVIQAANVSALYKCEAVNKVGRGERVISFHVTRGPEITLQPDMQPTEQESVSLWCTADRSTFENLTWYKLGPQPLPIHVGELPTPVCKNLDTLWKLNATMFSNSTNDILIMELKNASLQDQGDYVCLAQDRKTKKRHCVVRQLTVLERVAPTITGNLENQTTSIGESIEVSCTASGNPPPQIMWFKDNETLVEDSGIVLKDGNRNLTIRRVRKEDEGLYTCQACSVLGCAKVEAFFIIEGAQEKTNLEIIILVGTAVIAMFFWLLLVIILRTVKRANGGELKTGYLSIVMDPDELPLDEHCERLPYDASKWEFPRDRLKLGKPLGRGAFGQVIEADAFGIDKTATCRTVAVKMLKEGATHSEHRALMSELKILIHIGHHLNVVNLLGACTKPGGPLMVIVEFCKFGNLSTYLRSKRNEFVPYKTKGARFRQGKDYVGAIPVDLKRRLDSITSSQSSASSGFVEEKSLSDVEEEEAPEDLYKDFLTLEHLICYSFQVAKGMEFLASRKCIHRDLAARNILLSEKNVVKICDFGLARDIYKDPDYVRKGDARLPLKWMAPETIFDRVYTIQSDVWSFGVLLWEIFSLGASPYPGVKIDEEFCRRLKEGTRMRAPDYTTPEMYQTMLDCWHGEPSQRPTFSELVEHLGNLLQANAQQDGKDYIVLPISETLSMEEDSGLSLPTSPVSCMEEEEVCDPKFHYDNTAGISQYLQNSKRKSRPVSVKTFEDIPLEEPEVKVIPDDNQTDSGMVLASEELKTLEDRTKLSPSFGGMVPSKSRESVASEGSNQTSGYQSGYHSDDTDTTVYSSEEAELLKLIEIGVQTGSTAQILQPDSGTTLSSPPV
Description: Vascular endothelial growth factor receptor 2 (VEGFR2) is a primary receptor for VEGF-induced endothelial cell signaling. After ligand binding, VEGFR2 is autophosphorylated and activated. The main function of signaling from VEGFR2 is to induce vascularization during development and after tissue injury, and to bypass blocked blood vessels. Pathologically, VEGF and VEGFR2 are involved in tumor angiogenesis and vascular leakage. They are considered to be main participants in many different cancers and ocular diseases that accompany pathological neovascularization. This assay measured the ability of the compounds to inhibit VEGF-induced VEGFR2 autophosphorylation (pVEGFR2) in HUVEC cells by using ELISA.
Culture cells in a cell culture flask to reach a fusion degree of 60%-80% before cell inoculation. Dilute the cell suspension to […] with a pre-warmed complete medium. Add 80 μL of the cell suspension to all wells of a 96-well cell plate (Corning-3599); and incubate the plate overnight at 37° C. in the presence of 5% CO2. Dissolve the compound powder to 10 mM with DMSO and store it in a nitrogen cabinet. Compound dilution plate: Add a reference compound Ponatinib or a compound to be tested to a 96 V-well plate (Axygen-WIpp 2280) at concentrations achieved as follows: performing 3-fold gradient dilution starting from 5 mM (5 μL of 10 mM compound solution plus 5 μL of DMSO) for a total of 8 concentration points. […] Transfer 20 μL of the diluted compound from the intermediate plate to a cell plate. Then, incubate the cell plate for 1 h at 37° C. in the presence of 5% CO2. After the compound was treated for 1 h, add 25 μL of 250 ng/ml human VEGF at a final concentration of 50 ng/ml to a 96-well plate; and incubate the plate for 5 min at 37° C. in the presence of 5% CO2, centrifuge the plate for 10 min at 3,000 rpm, remove the medium and wash the cells once with 300 μL of pre-chilled DPBS per well. Then, centrifuge the plate for 10 min at 4,000 rpm, remove DPBS, and add 110 μL of pre-chilled 1× cell lysis buffer per well to the 96-well plate. Shake the plate for 40 min at 4° C. Then, freeze the plate in a refrigerator at −80° C. On the next day, remove the plate from the refrigerator at −80° C., thaw the plate, centrifuge the plate for 10 min at 3500 rpm, and add 100 μL of the supernatant per well to an ELISA plate. Seal the plate and incubate it for 2 h at 37° C. Wash the wells 4 times with 1× wash buffer. Add 100 μL of recombinant detection antibody per well. Seal the plate, incubate the plate for 1 h at 37° C., and repeat the step of plate washing. Add 100 μL of secondary antibody per well. Seal the plate, incubate the plate for 30 min at 37° C., and repeat the step of plate washing. Add 100 μL of TMB (protected from light) per well. Seal the plate, incubate the plate for 30 min at 37° C., and add 100 μL of the stop solution per well. Gently shake for 30 sec, measure the absorbance with a SpectraMax® 340 PC 384 Absorbance Microplate Reader within 30 min, and read an optical density value at 450 nm. Conduct data analysis using XL Fit software:
Conduct curve fitting using the 4 Parameter Logistic Model or Sigmoidal Dose-Response Model:
X indicating the log value of compound concentration, Y indicating the inhibition ratio (% inhibition), Top indicating the readout of the negative control wells, and bottom indicating the readout of the positive control well.

[2] = target: FLT4 (VEGFR3) (Homo sapiens (Human), UniProt P35916); assay: Kinase inhibition, Mobility Shift Assay (VEGFR3); assay type: biochemical
How it was run: (§1)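 Mobility shift assay: each kinase preincubated 10 min at room temperature with compound, then reacted with FAM-labeled peptide, MgCl2 and ATP at 28° C. for varying times. Substrate-to-product conversion read on Caliper; % inhibition normalised to no-kinase and DMSO controls, and IC50 fitted.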

[3] = target: FLT1 (VEGFR1) (Homo sapiens (Human), UniProt P17948); assay: Kinase inhibition, Mobility Shift Assay (VEGFR1); assay type: biochemical
Chain of FLT1 (VEGFR1) (P17948 27-1338): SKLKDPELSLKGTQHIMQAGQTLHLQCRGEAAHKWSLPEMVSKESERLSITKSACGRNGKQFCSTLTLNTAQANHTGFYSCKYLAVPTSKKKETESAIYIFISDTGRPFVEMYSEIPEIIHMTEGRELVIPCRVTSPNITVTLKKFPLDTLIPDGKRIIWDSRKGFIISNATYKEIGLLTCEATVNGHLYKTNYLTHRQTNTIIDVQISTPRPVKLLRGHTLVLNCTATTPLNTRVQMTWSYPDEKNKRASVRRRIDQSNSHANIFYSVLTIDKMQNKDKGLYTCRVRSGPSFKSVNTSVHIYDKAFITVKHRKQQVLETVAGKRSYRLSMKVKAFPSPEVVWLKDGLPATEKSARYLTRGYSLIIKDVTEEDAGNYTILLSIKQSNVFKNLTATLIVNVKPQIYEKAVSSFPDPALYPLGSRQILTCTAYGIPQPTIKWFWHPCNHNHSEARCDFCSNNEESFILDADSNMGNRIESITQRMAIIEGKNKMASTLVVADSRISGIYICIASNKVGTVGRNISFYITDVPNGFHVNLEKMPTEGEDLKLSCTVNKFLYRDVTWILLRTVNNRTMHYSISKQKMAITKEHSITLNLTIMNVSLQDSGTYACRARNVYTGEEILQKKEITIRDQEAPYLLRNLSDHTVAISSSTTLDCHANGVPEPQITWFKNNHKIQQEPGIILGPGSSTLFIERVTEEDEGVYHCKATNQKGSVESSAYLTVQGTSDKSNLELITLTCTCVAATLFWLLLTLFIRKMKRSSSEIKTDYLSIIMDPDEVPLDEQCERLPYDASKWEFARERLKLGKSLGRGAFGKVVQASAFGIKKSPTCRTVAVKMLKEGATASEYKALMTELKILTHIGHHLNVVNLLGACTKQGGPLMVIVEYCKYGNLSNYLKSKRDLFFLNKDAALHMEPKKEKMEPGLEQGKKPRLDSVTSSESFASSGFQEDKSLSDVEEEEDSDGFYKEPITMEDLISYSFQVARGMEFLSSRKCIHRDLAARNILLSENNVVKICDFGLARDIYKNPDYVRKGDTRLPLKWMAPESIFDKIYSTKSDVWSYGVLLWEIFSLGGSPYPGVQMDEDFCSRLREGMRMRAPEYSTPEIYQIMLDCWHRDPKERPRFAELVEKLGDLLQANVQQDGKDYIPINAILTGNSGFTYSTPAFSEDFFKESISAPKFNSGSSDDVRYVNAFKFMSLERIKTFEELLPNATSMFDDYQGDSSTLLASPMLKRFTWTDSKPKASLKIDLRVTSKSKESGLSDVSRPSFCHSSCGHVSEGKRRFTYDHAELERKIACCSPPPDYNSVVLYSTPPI
How it was run: as §1

[4] = target: EGFR (Homo sapiens (Human), UniProt P00533); assay: Kinase inhibition, Mobility Shift Assay (EGFR); assay type: biochemical
Chain of EGFR (P00533 25-1210): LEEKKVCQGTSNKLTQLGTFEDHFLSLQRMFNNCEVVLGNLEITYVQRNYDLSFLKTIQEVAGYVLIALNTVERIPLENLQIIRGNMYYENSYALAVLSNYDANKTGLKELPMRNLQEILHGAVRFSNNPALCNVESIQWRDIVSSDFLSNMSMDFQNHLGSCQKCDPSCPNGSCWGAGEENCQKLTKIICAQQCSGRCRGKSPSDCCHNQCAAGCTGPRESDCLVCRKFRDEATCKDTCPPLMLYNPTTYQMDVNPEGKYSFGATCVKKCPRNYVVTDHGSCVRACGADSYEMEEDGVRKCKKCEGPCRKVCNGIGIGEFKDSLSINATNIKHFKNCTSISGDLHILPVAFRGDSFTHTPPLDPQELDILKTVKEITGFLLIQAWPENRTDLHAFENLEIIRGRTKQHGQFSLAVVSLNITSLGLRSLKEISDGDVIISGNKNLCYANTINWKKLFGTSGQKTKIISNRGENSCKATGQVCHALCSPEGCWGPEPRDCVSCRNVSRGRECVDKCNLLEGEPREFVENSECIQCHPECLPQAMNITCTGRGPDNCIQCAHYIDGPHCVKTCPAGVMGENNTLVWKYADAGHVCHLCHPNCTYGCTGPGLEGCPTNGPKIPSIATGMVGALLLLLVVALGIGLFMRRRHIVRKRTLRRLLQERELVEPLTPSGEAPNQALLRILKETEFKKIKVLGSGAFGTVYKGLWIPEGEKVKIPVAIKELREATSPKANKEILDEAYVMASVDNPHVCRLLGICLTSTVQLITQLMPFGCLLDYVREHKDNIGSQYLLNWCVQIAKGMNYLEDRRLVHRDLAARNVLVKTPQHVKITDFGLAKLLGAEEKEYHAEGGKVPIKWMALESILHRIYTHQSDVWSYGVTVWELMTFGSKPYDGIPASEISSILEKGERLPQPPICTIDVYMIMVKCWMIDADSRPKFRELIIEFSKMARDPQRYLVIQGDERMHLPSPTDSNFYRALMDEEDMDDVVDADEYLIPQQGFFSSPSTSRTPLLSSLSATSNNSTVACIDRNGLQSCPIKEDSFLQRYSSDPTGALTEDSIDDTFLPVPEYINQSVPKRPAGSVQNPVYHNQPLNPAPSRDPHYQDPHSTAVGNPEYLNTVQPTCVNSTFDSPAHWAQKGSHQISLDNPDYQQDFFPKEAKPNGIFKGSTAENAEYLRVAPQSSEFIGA
How it was run: as §1

[5] = test system: melanin; assay: Binding capacity of compounds to melanin; assay type: in vitro ADME; conditions: Sepia officinalis (cuttlefish), melanin suspension (1 mg/mL); 1 mg/mL melanin suspension in PBS pH 7.4, 2 μM compound, 2 h at 37° C.; read-out: Fu % (percentage of free drug, not bound to melanin)
How it was run: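 Compound at 2 μM final incubated with 1 mg/mL Sepia melanin suspension in PBS pH 7.4 for 2 h at 37 °C with shaking; blank control in PBS with 0.1% BSA. Supernatant concentrations measured by LC-MS/MS; bound fraction from melanin versus control samples, free fraction as 100 − Fb.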

[6] = target: KDR (VEGFR2) (Homo sapiens (Human), UniProt P35968); assay: Kinase inhibition, Mobility Shift Assay (VEGFR2); assay type: biochemical
Chain of KDR (VEGFR2) (P35968 790-1356): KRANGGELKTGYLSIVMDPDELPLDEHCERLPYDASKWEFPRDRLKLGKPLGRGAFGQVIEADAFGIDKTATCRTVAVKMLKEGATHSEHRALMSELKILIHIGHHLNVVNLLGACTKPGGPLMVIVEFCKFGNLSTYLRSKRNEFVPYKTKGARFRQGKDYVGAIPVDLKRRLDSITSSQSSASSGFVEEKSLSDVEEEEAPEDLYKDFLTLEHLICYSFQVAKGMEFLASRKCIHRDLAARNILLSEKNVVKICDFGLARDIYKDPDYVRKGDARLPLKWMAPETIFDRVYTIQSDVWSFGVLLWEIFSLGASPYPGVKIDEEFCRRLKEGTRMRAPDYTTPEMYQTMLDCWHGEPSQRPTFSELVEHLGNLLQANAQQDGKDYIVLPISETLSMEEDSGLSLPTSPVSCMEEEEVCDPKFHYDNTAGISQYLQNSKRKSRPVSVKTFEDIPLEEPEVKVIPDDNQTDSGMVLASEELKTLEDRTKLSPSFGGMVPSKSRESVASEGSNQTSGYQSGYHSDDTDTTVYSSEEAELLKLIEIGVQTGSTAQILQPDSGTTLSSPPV
How it was run: as §1

[7] = Thermodynamic solubility assay; conditions: aqueous buffer, pH 2, aqueous buffer, thermodynamic from solid
Description: After sonication for 10 min, fix them on a shaker and shaking for 8 h at room temperature. After shaking, sonicate for 10 min and centrifuge for 15 min at 13,000 rpm. Pipette 0.1 mL of supernatant into a new tube, shake and rinse it with 5 mL, and discard the liquid. Transfer 0.5 mL of the supernatant again to a new tube, centrifuge it for 15 min at 13,000 rpm, then collect the supernatant (if necessary, dilute with water) and analyze it by LC-MS.
The sample concentrations at 3-5 points are subjected to fitting and reticle for quantification.

Row | Compound | IC50 [1] [nM] | IC50 [2] [nM] | IC50 [3] [nM] | IC50 [4] [nM] | fraction unbound at 2 h, 2 μM [5] | IC50 [6] [nM] | solubility at 8 h [7] [µg/mL]
1 | CNC(=O)c1ccccc1Sc1ccc2c(/C=C/c3cnn(CCN4CCCC4)c3)n[nH]c2c1 [Compound I-9, N-methyl-2-({3-[(E)-2-{1-[2-(pyrrolidin-1-yl)ethyl]-1H-pyrazole-4-yl}vinyl]-1H-indazol-6-yl}thio)benzamide] | ≤ 1 | 1 to 10 | 1 to 10 | 6000 to 60000 | 0.01 to 0.05 | 1 to 10 | 
2 | CN(C)Cc1ccc(/C=C/c2n[nH]c3cc(Sc4ccccc4C(=O)NC4CC4)ccc23)nc1 [Compound I-40, N-cyclopropyl-2-({3-[(E)-2-{5-[(dimethylamino)methyl]pyridin-2-yl}vinyl]-1H-indazol-6-yl}thio)benzamide] | ≤ 1 | 1 to 10 | ≤ 1 | 6000 to 60000 | 0.01 to 0.05 | ≤ 1 | 
3 | CCNC(=O)c1ccccc1Sc1ccc2c(/C=C/c3ccc(CN(CC)CC)cn3)n[nH]c2c1 [Compound I-86, 2-({3-[(E)-2-{5-[(diethylamino)methyl]pyridin-2-yl}vinyl]-1H-indazol-6-yl}thio)-N-ethylbenzamide] | ≤ 1 |  |  | 6000 to 60000 | 0.01 to 0.05 | ≤ 1 | 
4 | CCN(CC)Cc1ccc(/C=C/c2n[nH]c3cc(Sc4ccccc4C(=O)NC)ccc23)nc1 [Compound I-90, 2-({3-[(E)-2-{5-[(diethylamino)methyl]pyridin-2-yl}vinyl]-1H-indazol-6-yl}thio)-N-methylbenzamide] | ≤ 1 |  |  | 6000 to 60000 | 0.01 to 0.05 | 1 to 10 | 
5 | CCNC(=O)c1cc(F)ccc1Sc1ccc2c(/C=C/c3ccc(CN4CCCC4)cn3)n[nH]c2c1 [Compound I-97, N-ethyl-5-fluoro-2-({3-[(E)-2-{5-[(pyrrolidin-1-yl)methyl]pyridin-2-yl}vinyl]-1H-indazol-6-yl}thio)benzamide] | ≤ 1 | 1 to 10 | 1 to 10 | 6000 to 60000 | 0.01 to 0.05 | 1 to 10 | 
6 | CCN(CC)Cc1ccc(/C=C/c2n[nH]c3cc(Sc4ccccc4C(=O)NCC(F)(F)F)ccc23)nc1 [Compound I-100, 2-({3-[(E)-2-{5-[(diethylamino)methyl]pyridin-2-yl}vinyl]-1H-indazol-6-yl}thio)-N-(2,2,2-trifluoroethyl)benzamide] | ≤ 1 |  |  | 6000 to 60000 | > 0.05 | 1 to 10 | 
7 | CCNC(=O)c1cc(F)ccc1Sc1ccc2c(/C=C/c3cnn(CCCN4CCCC4)c3)n[nH]c2c1 [Compound I-104, N-ethyl-5-fluoro-2-({3-[(E)-2-{1-[3-(pyrrolidin-1-yl)propyl]-1H-pyrazol-4-yl}vinyl]-1H-indazol-6-yl}thio)benzamide] | ≤ 1 |  |  | > 60000 | > 0.05 | ≤ 1 | 
8 | CNC(=O)c1cc(F)ccc1Sc1ccc2c(/C=C/c3cnn(CCCN4CCCC4)c3)n[nH]c2c1 [Compound I-106] |  |  |  | 6000 to 60000 | > 0.05 | 1 to 10 | 1580 (≈ 3130 µM)
9 | CCN(CC)CCc1ccc(/C=C/c2n[nH]c3cc(Sc4ccc(F)cc4C(=O)NC4CC4)ccc23)nc1 [Compound I-109, N-cyclopropyl-2-({3-[(E)-2-{5-[2-(diethylamino)ethyl]pyridin-2-yl}vinyl]-1H-indazol-6-yl}thio)-5-fluorobenzamide] | 1 to 5 |  |  | 6000 to 60000 | > 0.05 | ≤ 1 | 

Next, values leading:

Row | IC50 [1] [nM] | IC50 [2] [nM] | IC50 [3] [nM] | IC50 [4] [nM] | fraction unbound at 2 h, 2 μM [5] | IC50 [6] [nM] | solubility at 8 h [7] [µg/mL] | Compound
10 | ≤ 1 | ≤ 1 | ≤ 1 | 6000 to 60000 | 0.01 to 0.05 | ≤ 1 |  | CNC(=O)c1ccccc1Sc1ccc2c(/C=C/c3ccc(OCCN4CCOCC4)cn3)n[nH]c2c1 [Compound I-3, N-methyl-2-({3-[(E)-2-{5-[2-(morpholin-4-yl)ethoxy]pyridin-2-yl}vinyl]-1H-indazol-6-yl}thio)benzamide]
11 | 1 to 5 | 1 to 10 | ≤ 1 | 6000 to 60000 | 0.01 to 0.05 | 1 to 10 |  | CNC(=O)c1ccccc1Sc1ccc2c(/C=C/c3ccc(OCCN4CCCC4)cn3)n[nH]c2c1 [Compound I-6, N-methyl-2-({3-[(E)-2-{5-[2-(pyrrolidin-1-yl)ethoxy]pyridin-2-yl}vinyl]-1H-indazol-6-yl}thio)benzamide]
12 |  | 1 to 10 | 1 to 10 | 6000 to 60000 | 0.01 to 0.05 | 1 to 10 | 46.8 (≈ 96.4 µM) | CNC(=O)c1ccccc1Sc1ccc2c(/C=C/c3ccc(OCC4CCCN4)cn3)n[nH]c2c1 (stereo not shown) [Compound I-14, N-methyl-2-({3-[(E)-2-{5-[(pyrrolidin-2-yl)methoxy]pyridin-2-yl}vinyl]-1H-indazol-6-yl}thio)benzamide]
13 | 1 to 5 | 10 to 100 | 10 to 100 | 6000 to 60000 | 0.01 to 0.05 | 10 to 100 |  | CNC(=O)c1ccccc1Sc1ccc2c(/C=C/c3cc(OCCN4CCCC4)ccn3)n[nH]c2c1 [Compound I-20, N-methyl-2-({3-[(E)-2-{4-[2-(pyrrolidin-1-yl)ethoxy]pyridin-2-yl}vinyl]-1H-indazol-6-yl}thio)benzamide]
14 | ≤ 1 | 1 to 10 | 1 to 10 | 6000 to 60000 | > 0.05 | 1 to 10 |  | CNC(=O)c1cc(F)ccc1Sc1ccc2c(/C=C/c3ccc(OCCN4CCCC4)cn3)n[nH]c2c1 [Compound I-34, 5-fluoro-N-methyl-2-({3-[(E)-2-{5-[2-(pyrrolidin-1-yl)ethoxy]pyridin-2-yl}vinyl]-1H-indazol-6-yl}thio)benzamide]
15 | ≤ 1 |  |  | 6000 to 60000 | 0.01 to 0.05 | 1 to 10 |  | CNC(=O)c1ccccc1Sc1ccc2c(/C=C/c3ccc(CCN4CCCC4)cn3)n[nH]c2c1 [Compound I-107, N-methyl-2-({3-[(E)-2-{5-[2-(pyrrolidin-1-yl)ethyl]pyridin-2-yl}vinyl]-1H-indazol-6-yl}thio)benzamide]
